Patent US8440610B2, “Mapkap kinase-2 as a specific target for blocking proliferation of P53-defective cells” (Massachusetts Institute of Technology, priority 2004, dated 2013)

How the values were obtained:
[1] = test system: H-Ras-V12 transformed p53−/− MEFs; experiment: Tumor regression assay of established tumors in nude mice; format: in vivo; details: MK2 depleted tumors; for tumor diameter at start of treatment: before treatment; for tumor diameter after fourteen days of treatment: cisplatin 2 mg/kg or doxorubicin 4 mg/kg intraperitoneal 3× per week
Procedure: For tumor regression assays, H-Ras-V12 transformed p53^−/− MEFs were stably transfected with a lentiviral transfer vector encoding for shRNA targeting either MAPKAP kinase-2 or luciferase. 10^6 cells were injected into the flanks of nude mice as above, and tumors were allowed to form for twelve days. Mice were then treated with either cisplatin (2 mg/kg, intraperitoneal administration 3× per week) or doxorubicin (4 mg/kg, intraperitoneal administration 3× per week), monitored for a total of twenty-six days, and then sacrificed. Tumor diameter was measured periodically during growth and tumors were weighed at the endpoint. Experiments were performed in quadruplicate, and data plotted as sample means with error bars showing standard deviation.
We investigated whether the chemo-sensitizing effect of MK2 depletion in p53 null cells in culture could also be observed when pre-existing p53 deficient tumors were treated with DNA damaging drugs in vivo. In these experiments HRas-V12 transformed p53^−/− MEFs were stably transfected with control shRNA or MK2 shRNA expressed from a murine U6 promoter, using a lentiviral delivering system (FIG. 18A). The lentiviral transfer vector also encoded GFP under the control of a CMV promoter, allowing for fluorescent detection of tumors in situ. Tumors were induced by injection of 10^6 cells into the flanks of nude mice. Twelve days later ˜1 cm diameter tumors had formed at all injection sites, and treatment with cisplatin, doxorubicin, or vehicle was begun (FIG. 18B). In the absence of treatment with DNA damaging drugs, the tumors arising from the MK2 depleted cells in the right flanks of these animals grew slightly larger than those of the luciferase shRNA control cells in the left flanks (FIG. 18B-18D). […] Tumors depleted of MK2 shrank from 1.3 cm to 0.4 cm over fourteen days when treated with cisplatin, and from 1.4 to 0.5 cm when treated with doxorubicin. Thus, the sensitizing effect of MK2 depletion on DNA damage induced cell death in p53-deficient primary cells observed in cell culture was also maintained in vivo.

[2] = test system: p53−/− MEFs; experiment: FACS cell cycle analysis (PI, phospho-histone H3) in p53−/− MEFs; format: cell-based, mouse; details: MK2 depleted p53−/− MEFs; 10 μM drug, nocodazole added three hours later, thirty hours
Procedure: FACS analysis. UV irradiation was performed at 254 nm (UV-C) using a Stratalinker 2400 (Stratagene). U2OS cells were fixed in 70% ethanol overnight at −20° C., permeabilized with PBS containing 0.2% Triton X-100 for twenty minutes at 4° C., blocked with 2% FBS in PBS, and incubated with 1 μg of anti-phospho-histone H3 per 10^6 cells for sixty minutes on ice. Following washing, cells were incubated with FITC-conjugated goat anti-rabbit antibody (diluted 1:500) for thirty minutes on ice, washed, and resuspended in PBS containing 50 μg/ml PI for twenty minutes immediately prior to FACS analysis. Analysis was performed using a Becton Dickinson FACS machine with CellQuest software.
To investigate the molecular mechanisms involved in MK2 dependent responses to DNA lesions, we examined cell cycle profiles of control and MK2 depleted p53^−/− MEFs. Asynchronous MK2- or control knock-down p53^−/− MEFs were mock treated or exposed to doxorubicin for thirty hour, and cell cycle distribution monitored by FACS. In one set of experiments the spindle poison nocodazole was added to the media three hours after addition of doxorubicin, to cause any cells progressing through the cell cycle to arrest in mitosis. DNA content was monitored by PI staining; phospho-histone-H3 staining was used as an indicator of mitotic entry. […]

## N.N.[Cl][Pt][Cl] [cisplatin]
[1]
  tumor diameter at start of treatment: 1.3 cm
  tumor diameter after fourteen days of treatment: 0.4 cm
[2]
  cells staining positively for phospho-histone H3: ~25%

## COc1cccc2c1C(=O)c1c(O)c3c(c(O)c1C2=O)C[C@@](O)(C(=O)CO)C[C@@H]3O[C@H]1C[C@H](N)[C@H](O)[C@H](C)O1 [doxorubicin]
[1]
  tumor diameter at start of treatment: 1.4 cm
  tumor diameter after fourteen days of treatment: 0.5 cm
[2]
  cells staining positively for phospho-histone H3: 28.5%
